Source: article PMC8699473, “An Easily Expandable Multi-Drug LC-MS Assay for the Simultaneous Quantification of 57 Oral Antitumor Drugs in Human Plasma” (Cancers, 2021)

Assay: Long-term stability in spiked pooled human plasma

SMILES | Long-term stability, 1 month, -20°C Accuracy [%] (validation standard 2xLLOV) | Long-term stability, 1 month, -80°C Accuracy [%] (validation standard 2xLLOV) | Long-term stability, 2 month, -20°C Accuracy [%] (validation standard 2xLLOV) | Long-term stability, 2 month, -80°C Accuracy [%] (validation standard 2xLLOV) | Long-term stability, 3 month, -20°C Accuracy [%] (validation standard 2xLLOV) | Long-term stability, 3 month, -80°C Accuracy [%] (validation standard 2xLLOV) | Long-term stability, 6 weeks, 4°C, without daylight Accuracy [%] (validation standard 2xLLOV) | Long-term stability, 1 month, -20°C Accuracy [%] (validation standard LLOV) | Long-term stability, 1 month, -80°C Accuracy [%] (validation standard LLOV) | Long-term stability, 2 month, -20°C Accuracy [%] (validation standard LLOV) | Long-term stability, 2 month, -80°C Accuracy [%] (validation standard LLOV) | Long-term stability, 3 month, -20°C Accuracy [%] (validation standard LLOV) | Long-term stability, 3 month, -80°C Accuracy [%] (validation standard LLOV) | Long-term stability, 6 weeks, 4°C, without daylight Accuracy [%] (validation standard LLOV) | Long-term stability, 1 month, -20°C Accuracy [%] (validation standard MOV) | Long-term stability, 1 month, -80°C Accuracy [%] (validation standard MOV) | Long-term stability, 2 month, -20°C Accuracy [%] (validation standard MOV) | Long-term stability, 2 month, -80°C Accuracy [%] (validation standard MOV) | Long-term stability, 3 month, -20°C Accuracy [%] (validation standard MOV) | Long-term stability, 3 month, -80°C Accuracy [%] (validation standard MOV) | other results
CNC(=O)c1ccccc1Sc1ccc2c(/C=C/c3ccccn3)n[nH]c2c1 [Axitinib] | 86.8 | 86.83 | 87.6 | 94.2 | 92.9 | 100.1 | 66.5 | 87.8 | 83.07 | 110.1 | 90.5 | 107.3 | 102.5 | 49.2 | 89.8 | 87.50 | 87.7 | 92.2 | 95.9 | 90.5 | Long-term stability, 6 weeks, 4°C, without daylight Accuracy [%] (validation standard MOV): 100.5%; Long-term stability, 1 month, -20°C Accuracy [%] (validation standard ULOV): 92.0%; Long-term stability, 1 month, -80°C Accuracy [%] (validation standard ULOV): 87.13%; Long-term stability, 2 month, -20°C Accuracy [%] (validation standard ULOV): 88.8%; Long-term stability, 2 month, -80°C Accuracy [%] (validation standard ULOV): 91.3%; Long-term stability, 3 month, -20°C Accuracy [%] (validation standard ULOV): 86.8%; Long-term stability, 3 month, -80°C Accuracy [%] (validation standard ULOV): 91.9%; Long-term stability, 6 weeks, 4°C, without daylight Accuracy [%] (validation standard ULOV): 91.2%
CNC(=O)c1cc(Oc2ccc(NC(=O)Nc3ccc(Cl)c(C(F)(F)F)c3)c(F)c2)ccn1 [Regorafenib] | 101.2 | 104.0 | 105.6 | 104.3 | 90.7 | 103.7 | 80.6 | 105.4 | 102.9 | 106.3 | 104.7 | 94.0 | 105.1 | 79.3 | 101.6 | 106.3 | 105.8 | 112.2 | 97.1 | 100.4 | Long-term stability, 6 weeks, 4°C, without daylight Accuracy [%] (validation standard MOV): 101.0%; Long-term stability, 1 month, -20°C Accuracy [%] (validation standard ULOV): 104.7%; Long-term stability, 1 month, -80°C Accuracy [%] (validation standard ULOV): 103.8%; Long-term stability, 2 month, -20°C Accuracy [%] (validation standard ULOV): 108.5%; Long-term stability, 2 month, -80°C Accuracy [%] (validation standard ULOV): 107.0%; Long-term stability, 3 month, -20°C Accuracy [%] (validation standard ULOV): 92.9%; Long-term stability, 3 month, -80°C Accuracy [%] (validation standard ULOV): 103.1%; Long-term stability, 6 weeks, 4°C, without daylight Accuracy [%] (validation standard ULOV): 95.5%
Cc1ccc(NC(=O)c2ccc(CN3CCN(C)CC3)cc2)cc1Nc1nccc(-c2cccnc2)n1 [Imatinib] | 97.8 | 96.3 | 104.1 | 112.9 | 64.1 | 72.7 | 103.4 | 88.0 | 77.3 | 95.6 | 103.3 | 19.7 | 18.2 | 86.4 | 87.1 | 84.4 | 99.4 | 96.4 | 90.0 | 90.1 | Long-term stability, 6 weeks, 4°C, without daylight Accuracy [%] (validation standard MOV): 95.4%; Long-term stability, 1 month, -20°C Accuracy [%] (validation standard ULOV): 87.9%; Long-term stability, 1 month, -80°C Accuracy [%] (validation standard ULOV): 79.8%; Long-term stability, 2 month, -20°C Accuracy [%] (validation standard ULOV): 91.0%; Long-term stability, 2 month, -80°C Accuracy [%] (validation standard ULOV): 89.1%; Long-term stability, 3 month, -20°C Accuracy [%] (validation standard ULOV): 89.6%; Long-term stability, 3 month, -80°C Accuracy [%] (validation standard ULOV): 89.4%; Long-term stability, 6 weeks, 4°C, without daylight Accuracy [%] (validation standard ULOV): 89.8%
